Patent US20170073324A1, “Bifidenone Compositions and Methods of Use” (Sequoia Sciences, Inc., priority 2015, published 2017)
Read-outs that look alike come from different tables or passages of the source.

Tests used:
[1] = test system: caspases 3 and 7 in NCI-H460 lung cancer cells; test: Caspase 3/7 luminescent apoptosis assay; type: cell-based, human; conditions: NCI-H460, varying concentrations
Experimental: FIG. 6 illustrates Caspase assay. Enzyme activity of caspases 3 and 7 was determined using a luminescent assay. NCI-H460 lung cancer cells were treated with varying concentrations of bifidenone or the known antitubulin agents paclitaxel or colchicine. The readout of relative light units is proportional to total caspase 3 and 7 activity.

[2] = Epimerization by TFA in HPLC solvents; type: physicochemical; conditions: TFA (0.05%) in HPLC solvents
Experimental: To obtain additional bifidenone for antiproliferation assays, the remaining material from the Beilschmiedia specimen was fractionated. […] Consequently, future isolations were performed without TFA in the semipreparative steps. Ultimately, 79 μg of bifidenone was isolated.

[3] = test system: PARP and caspase-7; test: Western blot of PARP and caspase-7 cleavage; type: cell-based; conditions: FIG. 7
[4] = test system: NCI-H460 lung cancer cells; test: Cell cycle analysis (propidium iodide, flow cytometry); type: cell-based, human; conditions: NCI-H460, 1, 2, or 3× the IC50 for 6, 18, or 24 h
Experimental: Antitubulin agents typically interfere with mitosis by disrupting the microtubule dynamics necessary for cell division. […] Cells were then treated with propidium iodide and analyzed using flow cytometry.

[5] = test system: colchicine binding site of tubulin; test: Ultrafiltration-based tubulin competition assay; conditions: free ligand by LC/MS
Source text: (§1) In order to determine the binding site of bifidenone on tubulin, a published ultrafiltration-based competition assay was used. In this assay, tubulin is allowed to bind with a known ligand, and then free ligand is separated by ultrafiltration and analyzed by LC/MS. In the presence of a competitor, the concentration of free ligand increases. […] FIG. 8 illustrates tubulin competition assay. Each graph depicts the amount of unbound compound detected in the presence of varying concentrations of competitors. Known competitors were used as positive controls: podophyllotoxin for the colchicine site (left), vinblastine for the vincristine site (center), and docetaxel for the paclitaxel site (right). Amounts of free compound are expressed as percentages normalized to the amount of free compound detected in the presence of 100 μM known competitor.

[6] = test system: paclitaxel binding site of tubulin; test: Ultrafiltration-based tubulin competition assay; conditions: free ligand by LC/MS
Source text: as §1

[7] = test system: NCI-H460 (large cell lung carcinoma) cells; test: Antiproliferation assay (CELLTITER 96 AQueous, 72 h); type: cell-based; conditions: Homo sapiens
Experimental: Bifidenone was tested for its ability to inhibit the proliferation of human cancer cells in vitro as described in the following paragraph. IC50 is defined as the concentration of compound necessary to achieve 50% of the maximum growth inhibition.
For the antiproliferation assay, NCI-H460 (large cell lung carcinoma) or M14 (amelanotic melanoma) cells were grown in RPMI-1640 with 10% FBS supplemented with L-glutamine and HEPES. Cells were seeded into 96-well plates at 5×10^2 to 5×10^4 cells/well and allowed to adhere overnight; the medium was then removed. A stock solution of test compound in DMSO was diluted in medium to generate a series of working solutions. Aliquots (100 μL) of the working solutions were then added to the appropriate test wells to expose cells to the final concentrations of compound in a total volume of 100 μL. Seven different concentrations were tested, with 2-5 wells per concentration. Camptothecin was used as a positive control; wells containing vehicle without compound were used as negative controls. Plates were kept for 72 h in a 37° C., 5% CO2 incubator. After incubation, viable cells were detected with the CELLTITER 96 AQueous Non-Radioactive Cell Proliferation Assay (Promega), and IC50 values were determined using GraphPad Prism 5 software.

[8] = test system: tubulin; test: In vitro tubulin polymerization assay; type: biochemical; conditions: absorbance readout, FIG. 3
Experimental: To test the hypothesis that bifidenone inhibits cell proliferation by interfering with microtubule dynamics, it was tested in an in vitro tubulin polymerization assay. FIG. 3 illustrates inhibition of tubulin polymerization by bifidenone. Increased absorbance corresponds to increased polymerization.

[9] = Mouse plasma concentration after IP injection; type: in vivo, mice
Experimental: The bioavailabilities of certain compounds were examined in mice. Administration of the compounds was performed by intraperitoneal (IP) injection using a vehicle as known to those skilled in the art. To measure compound concentrations in plasma, blood is collected by cardiac puncture at a specified time after dosing. It is then centrifuged in a plasma separator tube with NaEDTA/NaF as the anticoagulant, and the resulting plasma is stored at −80° C. For analysis, an internal standard is added to a 200 μL aliquot of plasma, and the aliquot is extracted with ethyl acetate. The ethyl acetate extract is analyzed by LC/MS and quantitated using a standard curve prepared by adding known amounts of test compound and internal standard to 200 μL aliquots of blank mouse plasma.
Many vehicles can be used to examine bioavailability. Prior to administration, each vehicle was optimized based on compound solubility according to the formulation research conducted by Uckun et at (Uckun, F. M., Tibbles, H., Erbeck, D., Venkatachalam, T. K., Qazi, S., 2007). In vivo pharmacokinetics and toxicity of a novel hydrophilic oral formulation of the potent non-nucleoside reverse transcriptase inhibitor compound N′-[2-(2-thiophene)ethyl]-N′-[2-(5-bromopyridyl)]-thiourea (HI-443). Arzneimittelforschung 57, 218-226.). […] The concentration of PEG400 is modulated depending upon solubility of the compounds and the amount of water phase added.
With larger injections (75-100 mg/kg), plasma concentrations were >4 times the IC50 at 6 h.

[10] = test system: NCI-H460 cells; test: Western blot analysis of G2/M markers; type: cell-based, human; conditions: NCI-H460, 21 h
Experimental: Nocodazole is known to cause G2/M arrest. Cell lysates were analyzed by western blot using the antibodies indicated on the left. Individual protein bands are designated on the right.

Compound: C=CC[C@H]1C[C@]2([C@@H](C)Cc3ccc(OC)c(OC)c3)OCOC2=CC1=O [bifidenone, (6S,7aR)-6-Allyl-7a-((S)-1-(3,4-dimethoxyphenyl)propan-2-yl)-7,7a-dihydrobenzo[d][1,3]dioxol-5(6H)-one]
- apoptosis by enzymatic activity of caspases 3 and 7 [1]: undergo apoptosis
- stability to TFA [2]: prone to epimerization
- cleavage of caspase-7 and PARP [3]: cleavage of caspase-7 and PARP occurred
- cell cycle effect [4]: causes arrest in the G2/M phase of the cell cycle
- competition for the colchicine binding site [5]: competes for the colchicine binding site
- competition for the paclitaxel binding site [6]: weakly for the paclitaxel binding site
- IC50 ([7]; NCI-H460, 72 h, read-out: IC50 against NCI-H460): 360 nM
- IC50 ([7]; NCI-H460, as restated in Example VII, read-out: IC50 against NCI-H460 human lung cancer cells): 360 nM
- inhibition of tubulin polymerization [8]: inhibits tubulin polymerization in a dose-dependent manner
- change of plasma concentration with vehicle ([9]; initial formulation diluted with up to 20% water): not diminished
- concentration at 1 h ([9]; mouse, plasma, 1 h post-injection, 40 mg/kg IP, vehicle 40% propylene glycol, 20% TWEEN-20, 20% PEG400, 20% ethanol): > 360 nM
- change of plasma levels with vehicle ([9]; propylene glycol decreased to 25%): diminished
- change of plasma levels with vehicle ([9]; propylene glycol increased to 45% and TWEEN-20 decreased to <3%): increased or were not diminished
- protein expression and phosphorylation patterns (Histone H3 Ser10, Myt1, Aurora A/B/C, cdc2 Tyr15) [10]: consistent with G2/M arrest
